This is an account of results in patent publication US6472391B2, “Nitrogen-containing heterocyclic compounds” (Millennium Pharmaceuticals, Inc., priority 1996, dated 2002).

The term melting point denotes the temperature of the solid-liquid transition. As to `COc1cc2ncnc(N3CCN(C(=O)Nc4cccc(C(F)(F)F)c4)CC3)c2cc1OC` [Compound 162, 4-(6,7-Dimethoxy-4-quinazolinyl)-N-(3-trifluoromethylphenyl)-1-piperazinecarboxamide], the melting point was 180 to 181 °C. The value for `S=C(NCc1ccccc1)N1CCN(c2ccnc3cc(Cl)ccc23)CC1` [Compound 405, N-Benzyl-4-(7-chloro-4-quinolyl)-1-piperazinethiocarboxamide] was 84 to 86 °C; that for `COc1cc2ncnc(N3CCN(C(=O)Nc4ccc(OC(F)(F)F)cc4)CC3)c2cc1OC` [Compound 59, 4-(6,7-Dimethoxy-4-quinazolinyl)-N-[4-(trifluoromethoxy)phenyl]-1-piperazinecarboxamide] was 204 to 205 °C; that for `COc1cc2ncnc(N3CCN(C(=O)Nc4cccc(F)c4)CC3)c2cc1OC` [Compound 35, 4-(6,7-Dimethoxy-4-quinazolinyl)-N-(3-fluorophenyl)-1-piperazinecarboxamide] was 214 to 220 °C.

For `COc1cc2ncnc(N3CCN(C(=S)Nc4ccc(OCc5ccccc5)cc4)CC3)c2cc1OC` [Compound 63, N-(4-Benzyloxyphenyl)-4-(6,7-dimethoxy-4-quinazolinyl)-1-piperazinethiocarboxamide], the melting point is 103 to 105 °C. Take `COc1ccc2ncnc(N3CCN(C(=S)NCc4ccccc4)CC3)c2c1` [Compound 309, N-Benzyl-4-(6-methoxy-4-quinazolinyl)-1-piperazinethiocarboxamide]: the melting point lay within 68 to 70 °C. The value for `COc1cc2ncnc(N3CCN(C(=O)Nc4ccccc4Cl)CC3)c2cc1OC` [Compound 38, N-(2-Chlorophenyl)-4-(6,7-dimethoxy-4-quinazolinyl)-1-piperazinecarboxamide] was 186 to 187 °C.

On to `COc1cc2ncnc(N3CCN(C(=O)NC(=O)c4ccccc4)CC3)c2cc1OC` [Compound 4, N-Benzoyl-4-(6,7-dimethoxy-4-quinazolinyl)-1-piperazinecarboxamide], for which the melting point was in the range of 122 to 124 °C. Under `CC(C)c1ccc(NC(=O)N2CCN(c3ncnc4c(Cl)cc(Cl)cc34)CC2)cc1` [Compound 376, 4-(6,8-Dichloro-4-quinazolinyl)-N-(4-isopropylphenyl)-1-piperazinecarboxamide] stands 234 to 236 °C. With `COc1cc2ncnc(N3CCN(C(=O)Nc4c(C(C)C)cccc4C(C)C)CC3)c2cc1OC` [Compound 31, N-(2,6-Diisopropylphenyl)-4-(6,7-dimethoxy-4-quinazolinyl)-1-piperazinecarboxamide], the melting point lay within 280 to 282 °C. Under `COc1cc2ncnc(N3CCN(C(=S)NCC4(c5ccc(Cl)cc5)CC4)CC3)c2cc1OC` [Compound 446, N-[1-(4-Chlorophenyl)cyclopropylmethyl]-4-(6,7-dimethoxy-4-quinazolinyl)-1-piperazinethiocarboxamide] stands 108 to 111 °C. As for `COc1cc2ncnc(N3CCN(C(=O)Nc4cccc(C(C)C)c4)CC3)c2cc1OC` [Compound 150, 4-(6,7-Dimethoxy-4-quinazolinyl)-N-(3-isopropylphenyl)-1-piperazinecarboxamide], the melting point was 196 to 197 °C.

In turn, `COc1cc2ncnc(N3CCN(C(=S)NCc4ccc(C(C)C)cc4)CC3)c2cc1OC` [Compound 154, 4-(6,7-Dimethoxy-4-quinazolinyl)-N-(4-isopropylbenzyl)-1-piperazinethiocarboxamide] came in with a melting point of 178 to 179 °C. The value for `COc1cc2ncnc(N3CCN(C(=O)NCc4ccc(C(F)(F)F)cc4)CC3)c2cc1OC` [Compound 160, 4-(6,7-Dimethoxy-4-quinazolinyl)-N-(4-trifluoromethylbenzyl)-1-piperazinecarboxamide] was 195 to 197 °C; that for `CCNc1cc2ncnc(N3CCN(C(=O)Nc4ccc(Oc5ccccc5)cc4)CC3)c2cc1[N+](=O)[O-]` [Compound 109, 4-(7-Ethylamino-6-nitro-4-quinazolinyl)-N-(4-phenoxyphenyl)-1-piperazinecarboxamide] was 242 to 244 °C; that for `COc1cc2ncnc(N3CCN(C(=O)Nc4ccc5[nH]ccc5c4)CC3)c2cc1OC` [Compound 118, 4-(6,7-Dimethoxy-4-quinazolinyl)-N-(5-indolyl)-1-piperazinecarboxamide] was 209 to 210 °C.

On to `COc1cccc2c(N3CCN(C(=O)Nc4ccc(C(C)=O)cc4)CC3)ncnc12` [Compound 328, N-(4-Acetylphenyl)-4-(8-methoxy-4-quinazolinyl)-1-piperazinecarboxamide], for which the melting point was in the range of 239 to 240 °C. Under `COc1cc2ncnc(N3CCN(C(=S)Nc4cccnc4)CC3)c2cc1OC` [Compound 97, 4-(6,7-Dimethoxy-4-quinazolinyl)-N-(3-pyridyl)-1-piperazinethiocarboxamide] stands 169 to 171 °C; under `COc1cc2c(N3CCN(C(=O)Nc4ccc(C#N)cc4)CC3)ncnc2cc1C` [Compound 334, N-(4-Cyanophenyl)-4-(6-methoxy-7-methyl-4-quinazolinyl)-1-piperazinecarboxamide], 242 to 243 °C. Under `CCOc1cc2c(N3CCN(C(=O)Nc4ccc(C#N)cc4)CC3)ncnc2cc1OC` [Compound 347, N-(4-Cyanophenyl)-4-(6-ethoxy-7-methoxy-4-quinazolinyl)-1-piperazinecarboxamide] stands 178 to 179 °C; under `CCCCn1c(=O)n(CCCC)c2cc3c(N4CCN(C(=O)Nc5ccc(Oc6ccccc6)cc5)CC4)ncnc3cc21` [Compound 390, 4-(1,3-Dibutyl-1,3-dihydro-2-oxo-2H-imidazo[4,5-g]quinazolin-8-yl)-N-(4-phenoxyphenyl)-1-piperazinecarboxamide], 134 to 136 °C. Under `CCOC(=O)c1cccc(NC(=O)N2CCN(c3ncnc4cc(OC)c(OC)cc34)CC2)c1` [Compound 248, 4-(6,7-Dimethoxy-4-quinazolinyl)-N-(3-ethoxycarbonylphenyl)-1-piperazinecarboxamide] stands 187 to 188 °C. Compound `CC(=O)c1ccc(NC(=O)N2CCN(c3ncnc4ccc(Cl)cc34)CC2)cc1` [Compound 302, N-(4-Acetylphenyl)-4-(6-chloro-4-quinazolinyl)-1-piperazinecarboxamide] showed a melting point of 207 to 208 °C.

As to `COc1cc2ncnc(N3CCN(C(=O)Nc4ccc(C(C)=O)cc4)CC3)c2cc1OC` [Compound 87, N-(4-acetylphenyl)-4-(6,7-dimethoxy-4-quinazolinyl)-1-piperazinecarboxamide], the melting point was 220 to 222 °C. `COc1cc2ncnc(N3CCN(C(=S)Nc4ccc(C(C)C)cc4)CC3)c2cc1OC` [Compound 152, 4-(6,7-Dimethoxy-4-quinazolinyl)-N-(4-isopropylphenyl)-1-piperazinethiocarboxamide] displayed a melting point of 194 to 195 °C. Under `COc1cc2ncnc(N3CCN(C(=O)Nc4cccc(SC)c4)CC3)c2cc1OC` [Compound 217, 4-(6,7-Dimethoxy-4-quinazolinyl)-N-(3-methylthiophenyl)-1-piperazinecarboxamide] stands 180 to 181 °C.

`Cl.Cl.S=C(NCc1cccnc1)N1CCN(c2ccnc3cc(Cl)ccc23)CC1` yielded a melting point of 170 to 173 °C.
